As a reminder, the IC50 is the midpoint of a concentration-inhibition curve.

The target in the assay is PLK1 (Homo sapiens, UniProt P53350). As to the kind of experiment: PLK1 protein kinase assay (CDC25C phosphorylation, [γ-32P]-ATP). The conditions noted are these: Table 2, PLK1 IC50; class symbols; read-out: PLK1 IC50. The format is biochemical.
Sequence of PLK1 (P53350 whole entry): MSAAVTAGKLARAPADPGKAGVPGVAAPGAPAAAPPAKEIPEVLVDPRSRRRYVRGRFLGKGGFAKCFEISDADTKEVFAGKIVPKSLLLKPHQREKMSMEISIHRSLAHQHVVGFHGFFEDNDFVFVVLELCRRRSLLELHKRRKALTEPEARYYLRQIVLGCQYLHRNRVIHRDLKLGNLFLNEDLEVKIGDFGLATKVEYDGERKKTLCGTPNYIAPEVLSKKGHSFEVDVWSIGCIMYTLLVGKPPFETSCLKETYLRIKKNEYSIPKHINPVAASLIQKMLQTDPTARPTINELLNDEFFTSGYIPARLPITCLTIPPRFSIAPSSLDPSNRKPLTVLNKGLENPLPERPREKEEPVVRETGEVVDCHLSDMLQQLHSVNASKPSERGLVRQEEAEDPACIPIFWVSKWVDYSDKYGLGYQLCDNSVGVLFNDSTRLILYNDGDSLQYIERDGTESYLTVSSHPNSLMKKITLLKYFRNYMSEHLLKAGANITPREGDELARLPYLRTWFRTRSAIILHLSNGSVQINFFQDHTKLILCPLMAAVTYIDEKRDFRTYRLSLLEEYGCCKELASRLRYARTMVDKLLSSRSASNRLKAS
For the molecule `Cc1c(Nc2ncc3c(n2)N(C2CCCC2)CCC(=O)N3C)cccc1C(=O)NCCO` [compound 142, 3-(9-Cyclopentyl-5-methyl-6-oxo-6,7,8,9-tetrahydro-5H-pyrimido[4,5-b][1,4]diazepin-2-ylamino)-N-(2-hydroxy-ethyl)-2-methyl-benzamide], the IC50 is less than 10000 nM.
With `COc1ccc(C(=O)NC2CCN(C)CC2)cc1Nc1ncc2c(n1)N(C1CCCC1)CCC(=O)N2C` [compound 143, 3-(9-Cyclopentyl-5-methyl-6-oxo-6,7,8,9-tetrahydro-5H-pyrimido[4,5-b][1,4]diazepin-2-ylamino)-4-methoxy-N-(1-methyl-piperidin-4-yl)-benzamide], the IC50 was less than 1000 nM.
In the case of `CNC(=O)c1ccc(OC)c(Nc2ncc3c(n2)N(C2CCCC2)CCC(=O)N3C)c1` [compound 144, 3-(9-Cyclopentyl-5-methyl-6-oxo-6,7,8,9-tetrahydro-5H-pyrimido[4,5-b][1,4]diazepin-2-ylamino)-4-methoxy-N-methyl-benzamide] it was less than 1000 nM; in that of `COc1ccc(C(=O)NCCO)cc1Nc1ncc2c(n1)N(C1CCCC1)CCC(=O)N2C` [compound 145, 3-(9-Cyclopentyl-5-methyl-6-oxo-6,7,8,9-tetrahydro-5H-pyrimido[4,5-b][1,4]diazepin-2-ylamino)-N-(2-hydroxy-ethyl)-4-methoxy-benzamide], less than 1000 nM; in that of `COc1cc(C(=O)N(C)CCCN(C)C)ccc1Nc1ncc2c(n1)N(C1CCCC1)CCC(=O)N2C` [compound 147, 4-(9-Cyclopentyl-5-methyl-6-oxo-6,7,8,9-tetrahydro-5H-pyrimido[4,5-b][1,4]diazepin-2-ylamino)-N-(3-dimethylamino-propyl)-3-methoxy-N-methyl-benzamide], less than 1000 nM.
As for `CCN(CC)CCNC(=O)c1ccc(Nc2ncc3c(n2)N(C2CCCC2)CCC(=O)N3C)c(OC)c1` [compound 148, 4-(9-Cyclopentyl-5-methyl-6-oxo-6,7,8,9-tetrahydro-5H-pyrimido[4,5-b][1,4]diazepin-2-ylamino)-N-(2-diethylamino-ethyl)-3-methoxy-benzamide], the IC50 is less than 100 nM.
Consider `COc1cc(C(=O)NCCCN(C)C)ccc1Nc1ncc2c(n1)N(C1CCCC1)CCC(=O)N2C` [compound 149, 4-(9-Cyclopentyl-5-methyl-6-oxo-6,7,8,9-tetrahydro-5H-pyrimido[4,5-b][1,4]diazepin-2-ylamino)-N-(3-dimethylamino-propyl)-3-methoxy-benzamide], for which the IC50 was less than 1000 nM.
Consider `COc1cc(C(=O)N[C@H]2c3ccccc3C[C@H]2O)ccc1Nc1ncc2c(n1)N(C1CCCC1)CCC(=O)N2C` [compound 150, 4-(9-Cyclopentyl-5-methyl-6-oxo-6,7,8,9-tetrahydro-5H-pyrimido[4,5-b][1,4]diazepin-2-ylamino)-N-((1S,2R)-2-hydroxy-indan-1-yl)-3-methoxy-benzamide], for which the IC50 was less than 1000 nM.
For `COc1cc(C(=O)N[C@@H](CO)C(C)C)ccc1Nc1ncc2c(n1)N(C1CCCC1)CCC(=O)N2C` [compound 152, 4-(9-Cyclopentyl-5-methyl-6-oxo-6,7,8,9-tetrahydro-5H-pyrimido[4,5-b][1,4]diazepin-2-ylamino)-N-((R)-1-hydroxymethyl-2-methyl-propyl)-3-methoxy-benzamide], the concentration for half-maximal inhibition (IC50) is less than 1000 nM.
Regarding `CCC(CO)NC(=O)c1ccc(Nc2ncc3c(n2)N(C2CCCC2)CCC(=O)N3C)c(OC)c1` (stereo not shown) [compound 153, 4-(9-Cyclopentyl-5-methyl-6-oxo-6,7,8,9-tetrahydro-5H-pyrimido[4,5-b][1,4]diazepin-2-ylamino)-N-(1-hydroxymethyl-propyl)-3-methoxy-benzamide], the IC50 is less than 1000 nM.
For `COc1cc(C(=O)NCC(C)O)ccc1Nc1ncc2c(n1)N(C1CCCC1)CCC(=O)N2C` (stereo not shown) [compound 154, 4-(9-Cyclopentyl-5-methyl-6-oxo-6,7,8,9-tetrahydro-5H-pyrimido[4,5-b][1,4]diazepin-2-ylamino)-N-(2-hydroxy-propyl)-3-methoxy-benzamide], the IC50 was less than 1000 nM.
Next, `COc1cc(C(=O)NC(C)(C)CN2CCCC2)ccc1Nc1ncc2c(n1)N(C1CCCC1)CCC(=O)N2C` [compound 155, 4-(9-Cyclopentyl-5-methyl-6-oxo-6,7,8,9-tetrahydro-5H-pyrimido[4,5-b][1,4]diazepin-2-ylamino)-N-(1,1-dimethyl-2-pyrrolidin-1-yl-ethyl)-3-methoxy-benzamide]: less than 1000 nM; `COc1cc(C(=O)NC(C)(C)CN2CCCCC2)ccc1Nc1ncc2c(n1)N(C1CCCC1)CCC(=O)N2C` [compound 156, 4-(9-Cyclopentyl-5-methyl-6-oxo-6,7,8,9-tetrahydro-5H-pyrimido[4,5-b][1,4]diazepin-2-ylamino)-N-(1,1-dimethyl-2-piperidin-1-yl-ethyl)-3-methoxy-benzamide]: less than 100 nM; `COc1cc(C(=O)NC2CCN(Cc3ccccc3)CC2)ccc1Nc1ncc2c(n1)N(C1CCCC1)CCC(=O)N2C` [compound 157, N-(1-Benzyl-piperidin-4-yl)-4-(9-cyclopentyl-5-methyl-6-oxo-6,7,8,9-tetrahydro-5H-pyrimido[4,5-b][1,4]diazepin-2-ylamino)-3-methoxy-benzamide]: less than 100 nM.
Turning to `COc1cc(C(=O)NCC2CCN(C)CC2)ccc1Nc1ncc2c(n1)N(C1CCCC1)CCC(=O)N2C` [compound 158, 4-(9-Cyclopentyl-5-methyl-6-oxo-6,7,8,9-tetrahydro-5H-pyrimido[4,5-b][1,4]diazepin-2-ylamino)-3-methoxy-N-(1-methyl-piperidin-4-ylmethyl)-benzamide], the IC50 is less than 100 nM.
On to `COc1cc(C(=O)NCCCO)ccc1Nc1ncc2c(n1)N(C1CCCC1)CCC(=O)N2C` [compound 159, 4-(9-Cyclopentyl-5-methyl-6-oxo-6,7,8,9-tetrahydro-5H-pyrimido[4,5-b][1,4]diazepin-2-ylamino)-N-(3-hydroxy-propyl)-3-methoxy-benzamide], for which the IC50 was less than 1000 nM.
Next, `COc1cc(C(=O)NN2CCN(C)CC2)ccc1Nc1ncc2c(n1)N(C1CCCC1)CCC(=O)N2C` [compound 160, 4-(9-Cyclopentyl-5-methyl-6-oxo-6,7,8,9-tetrahydro-5H-pyrimido[4,5-b][1,4]diazepin-2-ylamino)-3-methoxy-N-(4-methyl-piperazin-1-yl)-benzamide]: less than 100 nM; `COc1cc(C(=O)NC2CN3CCC2CC3)ccc1Nc1ncc2c(n1)N(C1CCCC1)CCC(=O)N2C` (stereo not shown) [compound 161, N-(1-Aza-bicyclo[2.2.2]oct-3-yl)-4-(9-cyclopentyl-5-methyl-6-oxo-6,7,8,9-tetrahydro-5H-pyrimido[4,5-b][1,4]diazepin-2-ylamino)-3-methoxy-benzamide]: less than 100 nM; `COc1cc(C(=O)NC2CC(C)(C)N(C)C(C)(C)C2)ccc1Nc1ncc2c(n1)N(C1CCCC1)CCC(=O)N2C` [compound 162, 4-(9-Cyclopentyl-5-methyl-6-oxo-6,7,8,9-tetrahydro-5H-pyrimido[4,5-b][1,4]diazepin-2-ylamino)-3-methoxy-N-(1,2,2,6,6-pentamethyl-piperidin-4-yl)-benzamide]: less than 100 nM.
Next, `COc1cc(C(=O)NC2CCCN(C)C2)ccc1Nc1ncc2c(n1)N(C1CCCC1)CCC(=O)N2C` (stereo not shown) [compound 163, 4-(9-Cyclopentyl-5-methyl-6-oxo-6,7,8,9-tetrahydro-5H-pyrimido[4,5-b][1,4]diazepin-2-ylamino)-3-methoxy-N-(1-methyl-piperidin-3-yl)-benzamide]: less than 100 nM; `CCC(O)CNC(=O)c1ccc(Nc2ncc3c(n2)N(C2CCCC2)CCC(=O)N3C)c(OC)c1` (stereo not shown) [compound 164, 4-(9-Cyclopentyl-5-methyl-6-oxo-6,7,8,9-tetrahydro-5H-pyrimido[4,5-b][1,4]diazepin-2-ylamino)-N-(2-hydroxy-butyl)-3-methoxy-benzamide]: less than 1000 nM.
For the molecule `COc1cc(C(=O)NCC(C)(C)CN(C)C)ccc1Nc1ncc2c(n1)N(C1CCCC1)CCC(=O)N2C` [compound 165, 4-(9-Cyclopentyl-5-methyl-6-oxo-6,7,8,9-tetrahydro-5H-pyrimido[4,5-b][1,4]diazepin-2-ylamino)-N-(3-dimethylamino-2,2-dimethyl-propyl)-3-methoxy-benzamide], the IC50 is less than 100 nM.
Next, `COc1cc(C(=O)NCCO)ccc1Nc1ncc2c(n1)N(C1CCCC1)CCC(=O)N2C` [compound 166, 4-(9-Cyclopentyl-5-methyl-6-oxo-6,7,8,9-tetrahydro-5H-pyrimido[4,5-b][1,4]diazepin-2-ylamino)-N-(2-hydroxy-ethyl)-3-methoxy-benzamide]: less than 1000 nM.
In the case of `COc1cc(C(=O)N(CCO)CCO)ccc1Nc1ncc2c(n1)N(C1CCCC1)CCC(=O)N2C` [compound 167, 4-(9-Cyclopentyl-5-methyl-6-oxo-6,7,8,9-tetrahydro-5H-pyrimido[4,5-b][1,4]diazepin-2-ylamino)-N,N-bis-(2-hydroxy-ethyl)-3-methoxy-benzamide] it was less than 10000 nM; in that of `COc1cc(C(=O)NCCOCCO)ccc1Nc1ncc2c(n1)N(C1CCCC1)CCC(=O)N2C` [compound 168, 4-(9-Cyclopentyl-5-methyl-6-oxo-6,7,8,9-tetrahydro-5H-pyrimido[4,5-b][1,4]diazepin-2-ylamino)-N-[2-(2-hydroxy-ethoxy)-ethyl]-3-methoxy-benzamide], less than 1000 nM.
As to `CONC(=O)c1ccc(Nc2ncc3c(n2)N(C2CCCC2)CCC(=O)N3C)c(OC)c1` [compound 169, 4-(9-Cyclopentyl-5-methyl-6-oxo-6,7,8,9-tetrahydro-5H-pyrimido[4,5-b][1,4]diazepin-2-ylamino)-3,N-dimethoxy-benzamide], the IC50 is less than 1000 nM.
In the case of `CCN(CC)CCNC(=O)c1ccc(Nc2ncc3c(n2)N(C2CCCC2)CC2(CC2)C(=O)N3C)c(OC)c1` [compound 182, 4-(9-Cyclopentyl-5-methyl-6-oxo-6,7,8,9-tetrahydro-5H-spiro[pyrimido[4,5-b][1,4]diazepin-3,1′-cyclopropane]-2-ylamino)-N-(2-diethylamino-ethyl)-3-methoxy-benzamide], the IC50 is less than 100 nM.
`COc1cc(C(=O)NCCCN(C)C)ccc1Nc1ncc2c(n1)N(C1CCCC1)CC1(CC1)C(=O)N2C` [compound 183]: the IC50 was less than 100 nM.

The values above are taken from US8563542B2 (Cyclacel Limited, priority 2007, dated 2013).
